One data set deals with HeLa. The experiment in a line: Cytotoxicity against human HeLa cells assessed as cell growth inhibition after 24 hrs by XTT assay. In kind it is functional, cell-based. For orientation: Tetrazolium assays rely on reduction of a dye to a coloured formazan, in cell work by metabolically active cells.
Data set [1] concerns Staphylococcus aureus. The experiment in a line: Antibacterial activity against gram-positive Staphylococcus aureus ATCC 3591 at 5 mg/ml incubated overnight by agar well diffusion method. It counts as functional. Particulars: read-out: DIZ.
The subject of data set [2] is MCF7. The experiment in a line: cells. The note with it: Homo sapiens, MCF7, 24 h.
Description: Cytotoxicity against human MCF7 cells assessed as cell growth inhibition after 24 hrs by XTT assay
Data set [3] relates to Mycobacterium tuberculosis. The experiment in a line: microbe, parasite or virus in culture. The note with it: H37Rv.
Description: Antibacterial activity against Mycobacterium tuberculosis H37Rv
A short description of data set [4]: Lipophilicity, log P of the compound. In kind it is physicochemical. Particulars: octanol/water.
Data set [5] concerns Escherichia coli. The experiment in a line: Bactericidal activity against gram-negative Escherichia coli ATCC 11229 after 24 hrs by broth dilution method. In kind it is functional. The note with it: ATCC 11229, 24 h. A general note: Broth dilution looks for growth in wells or tubes with falling amounts of substance.
Data set [6] deals with Staphylococcus epidermidis. As to the kind of experiment: Bactericidal activity against gram-positive Staphylococcus epidermidis ATCC 12228 after 24 hrs by broth dilution method. In kind it is functional. The note with it: ATCC 12228, 24 h.
Data set [7] concerns Staphylococcus aureus. The experiment in a line: Bactericidal activity against gram-positive Staphylococcus aureus ATCC 3591 after 24 hrs by broth dilution method. In kind it is functional. Particulars: ATCC 3591, 24 h.
Data set [8] concerns MCF7. The experiment in a line: Selectivity index, ratio of IC50 for human GM07492A cells to IC50 for human MCF7 cells. It counts as functional.
Data set [9] relates to Staphylococcus epidermidis. As to the kind of experiment: Antibacterial activity against gram-positive Staphylococcus epidermidis ATCC 12228 at 5 mg/ml incubated overnight by agar well diffusion method. It counts as functional. The note with it: read-out: DIZ. On the technique in general: Agar diffusion results depend on both activity and mobility in agar.
The test system of data set [10] is Pseudomonas aeruginosa. The experiment in a line: Antibacterial activity against gram-negative Pseudomonas aeruginosa ATCC 2785 at 5 mg/ml incubated overnight by agar well diffusion method. In kind it is functional. The note with it: read-out: DIZ.
Data set [11] can be described thus: Cytotoxicity against human GM07492A cells assessed as cell growth inhibition after 24 hrs by XTT assay. It counts as cell-based.
The subject of a further data set is M059J. As to the kind of experiment: Cytotoxicity against human M059J cells assessed as cell growth inhibition after 24 hrs by XTT assay. In kind it is functional, cell-based.
For data set [12], the system named is Escherichia coli. As to the kind of experiment: Antibacterial activity against gram-negative Escherichia coli ATCC 11229 at 5 mg/ml incubated overnight by agar well diffusion method. It counts as functional. Particulars: read-out: DIZ.
The test system of data set [13] is Pseudomonas aeruginosa. As to the kind of experiment: Bactericidal activity against gram-negative Pseudomonas aeruginosa ATCC 2785 after 24 hrs by broth dilution method. In kind it is functional. Particulars: ATCC 2785, 24 h.

Each structure is given as a SMILES string.

Usually IC50 stands for the concentration at which inhibition is half-maximal. A word on the logP: it is the decadic logarithm of the partition coefficient of the neutral form, usually between octanol and water. One may read the MBC as the lowest tested concentration that kills the bacteria rather than only halting them. High values mean less potent killing, low ones more potent killing.

Regarding `CCCCCCCCCCCCCCNCCNCC(O)COC[C@H]1O[C@@H]2OC(C)(C)O[C@@H]2[C@H]2OC(C)(C)O[C@H]21` (mixture of isomers), the IC50 in the data set on HeLa amounted to 41.5 µM; in the data set on MCF7 [2], 39.3 µM; in data set [11], 24.9 µM; in the data set with M059J it was 39.2 µM. In addition, the zone of inhibition at 5000 µg/mL with Staphylococcus aureus [1] was found to be 22 mm; in data set [9] it was 20 mm; with Pseudomonas aeruginosa [10] it was 20 mm; with Escherichia coli [12], 10 mm. Further, in data set [3], the MIC stood at 87 µM. The compound further showed a logP in [4] of 3.56. Further, the MBC with Escherichia coli [5] was 445 µM; in data set [6], 14 µM; in the data set with Staphylococcus aureus [7] it was 14 µM; in the data set with Pseudomonas aeruginosa [13], over 894 µM. Moreover, the “Ratio IC50” value in the data set on MCF7 [8] turned out to be 0.6.
Consider `CCCCCCCCCCNCCNCC(O)COC[C@H]1O[C@@H]2OC(C)(C)O[C@@H]2[C@H]2OC(C)(C)O[C@H]21` (mixture of isomers), for which the IC50 stood at 40.2 µM in the data set on HeLa, 28 µM with MCF7 [2], 63.3 µM in [11] and 39.2 µM in the data set on M059J. Also, the zone of inhibition at 5000 µg/mL with Staphylococcus aureus [1] amounted to 20 mm; in [9], 20 mm; with Escherichia coli [12], 16 mm. In [3], the MIC is 24 µM. In data set [4], this compound came in with a logP of 3.15. For the same compound, the MBC with Escherichia coli [5] was over 990 µM; in data set [6], 8 µM; in the data set with Staphylococcus aureus [7], 8 µM; in the data set on Pseudomonas aeruginosa [13] it was over 990 µM. Besides, in the data set on MCF7 [8], the “Ratio IC50” value is 2.3.
On to `CCCCCCCCCCCCNCCNCC(O)COC[C@H]1O[C@@H]2OC(C)(C)O[C@@H]2[C@H]2OC(C)(C)O[C@H]21` (mixture of isomers), for which the zone of inhibition at 5000 µg/mL in the data set on Staphylococcus aureus [1] is 30 mm; in data set [9] it was 20 mm; with Pseudomonas aeruginosa [10], 20 mm; with Escherichia coli [12] it was 10 mm. Besides, the half-maximal inhibitory concentration (IC50) in the data set on MCF7 [2] was determined as 11.9 µM; in data set [11], 7.3 µM; with M059J it was 10 µM. Also, the MIC in data set [3] is 91 µM. In data set [4], the log partition coefficient (logP) was found to be 3.99. For the same compound, the MBC in the data set on Escherichia coli [5] is 235 µM; in [6], 15 µM; in the data set with Staphylococcus aureus [7], 15 µM; with Pseudomonas aeruginosa [13] it was over 940 µM. Further, the “Ratio IC50” value in the data set with MCF7 [8] came to 0.6.
`NC(=O)N/N=C/c1ccc([N+](=O)[O-])o1` [NITROFURAZONE]: the zone of inhibition at 5000 µg/mL in the data set on Staphylococcus aureus [1] worked out at 31 mm; in [9], 25 mm; with Pseudomonas aeruginosa [10] it was 15 mm; in the data set with Escherichia coli [12] it was 35 mm.

Source of the values: ChEMBL document CHEMBL3758161, “Synthesis and evaluation of antibacterial and antitumor activities of new galactopyranosylated amino alcohols” (Eur J Med Chem, 2016).
